Assay results taken from patent US20030170181A1, “Method for preventing abuse of methylphenidate” (priority 1999, published 2003).
Several values for one entry are separate records, joined by “and”; a condition that tells them apart may be missing. Equal values may be shown once. Read-outs that look alike come from different tables or passages of the source.

Legend:
[1] = Pharmacokinetics of d-threo and l-threo methylphenidate in plasma after intravenous administration of 10 mg racemic methylphenidate; conditions: for CL / MRT / Vdss / t½ / clearance / Vd / half-life: plasma, IV 10 mg racemic methylphenidate; for clearance / Vd / half-life: male, human, iv, 10 mg; for clearance: CL; for Vd: Vdss; for half-life: t½; for plasma levels of d-MPH versus l-MPH: methylphenidate administered intravenously, up to 1.5 hours post dose
Protocol: Eleven healthy male subjects were administered 10 mg of racemic methylphenidate (Ritalin®) by intravenous (IV) administration and 40 mg of racemic methylphenidate (Ritalin®) by immediate release (IR) oral administration.

[2] = Pharmacokinetics of d-threo and l-threo methylphenidate in plasma after oral administration of 40 mg immediate release racemic methylphenidate; assay type: in vivo, human; conditions: for fraction metabolized / bioavailability: after oral administration of commercially available racemic methylphenidate; for Cmax / Tmax / t½ / bioavailability / half-life: plasma; for Cmax / Tmax / t½ / half-life: oral 40 mg immediate release methylphenidate; for bioavailability: read-out: bioavailability in blood plasma; for half-life: read-out: t½ (converted)
[3] = test system: males with ADHD; test: Combined pharmacokinetic/pharmacodynamic study of dose regimens of methylphenidate on activity and attention (OPTAX measures); assay type: in vivo, human; conditions: pulsatile dosing schedule 2 (PD2): 0.4, 0.4, 0.2 mg/kg at 0, 240, 480 min; compared with CD1, CD2, PD1; twelve-hour day
Text: Combined pharmacokinetic/pharmacodynamic studies of methylphenidate using different dosage regiments were designed to determine if regimens that produced stable or rising methylphenidate levels had benefits, or if fluctuating levels were necessary to prevent rapid development of tolerance (tachyphylaxis). The experimental subjects were a group of seventy-three males with ADHD recruited from the general population through a newspaper advertisement. Each subject was between the ages of 9 to 12, was objectively hyperactive, and responded positively to methylphenidate. Hyperactivity levels of each boy were determined through OPTAX™ measures, a clinical tool that provides high-resolution assessment of movement patterns during performance of a novel, monotonous, yet challenging cognitive vigilance task. Through the OPTAX™ measures, it is possible to identify differences between drug regimens based solely on dosage schedule, while holding total daily dose constant. Of the 73 original boys, thirteen were excluded based on lack of symptoms by parent interview or on lack of objective hyperactivity greater than 25% over controls on OPTAX™ measures. […]
The double blind parallel group study evaluated the efficacy of methylphenidate for the treatment of ADHD when given in a near continuous amount throughout the day and in pulsatile or fluctuating doses throughout the day. […]

[4] = cited from earlier work
[5] = individual subjects 1-11, listed as l
[6] = male, human, po, 40 mg, mean of 11 subjects, read-out: Cmax
[7] = male, human, po, 40 mg, mean of 11 subjects, read-out: Tmax
[8] = male, human, po, 40 mg, mean of 11 subjects
[9] = racemic d,l-threo methylphenidate
[10] = individual subjects 1-11, listed as d

| SMILES | clearance ([1]; mean of 11 subjects) [mL/min/kg] | Vd ([1]; mean of 11 subjects) [L/kg] | half-life ([1]; mean of 11 subjects) [h] | MRT ([1]; mean of 11 subjects) [H] | plasma levels of d-MPH versus l-MPH [1] | fraction metabolized [2] | bioavailability ([2]; male, human, 40 mg) [%] | Cmax [2, 6] [ng/mL] | Tmax [2, 7] [h] | half-life [2, 8] [h] | also measured |
| --- | --- | --- | --- | --- | --- | --- | --- | --- | --- | --- | --- |
| COC(=O)[C@@H](c1ccccc1)[C@@H]1CCCCN1 [l-MPH, l-threo methylphenidate] | 12.2 | 1.8 | 3.61 | 2.44 | approximately equivalent plasma levels | approximately 95% | 5 | 2.98 | 2.2 | 3.93 | CL [1, 5]: 0.56 L/kg · h^−1 and 0.82 L/kg · h^−1 and 0.59 L/kg · h^−1 and 0.41 L/kg · h^−1 and 1.05 L/kg · h^−1 and 0.26 L/kg · h^−1 and 0.89 L/kg · h^−1 and 0.49 L/kg · h^−1 and 0.78 L/kg · h^−1 and 1.11 L/kg · h^−1 and 1.02 L/kg · h^−1; MRT [1, 5]: 2.28 H and 2.02 H and 2.37 H and 2.63 H and 2.12 H and 2.50 H and 3.34 H and 1.42 H and 3.03 H and 2.84 H; Vdss [1, 5]: 1.27 L/kg and 1.86 L/kg and 1.19 L/kg and 0.97 L/kg and 2.77 L/kg and 0.56 L/kg and 2.23 L/kg and 1.63 L/kg and 1.03 L/kg and 3.36 L/kg and 2.89 L/kg; t½ [1, 5]: 2.08 h and 4.19 h and 2.63 h and 3.57 h and 5.11 h and 2.93 h and 2.21 h and 3.47 h and 4.06 h and 5.23 h; Cmax [2, 5]: 4.23 ng/mL and 2.49 ng/mL and 3.26 ng/mL and 1.59 ng/mL and 3.61 ng/mL and 1.49 ng/mL and 2.88 ng/mL and 4.01 ng/mL and 2.27 ng/mL and 3.03 ng/mL and 3.95 ng/mL; Tmax [2, 5]: 2.0 h and 3.0 h and 1.0 h and 1.5 h and 4.0 h; t½ [2, 5]: 4.61 h and 2.48 h and 4.06 h and 3.80 h and 3.09 h and 3.91 h and 4.24 h and 3.84 h and 3.55 h and 4.23 h and 5.41 h |
| COC(=O)C(c1ccccc1)C1CCCCN1 (racemic) [methylphenidate, α-phenyl-2-piperidine-acetic acid methyl ester] |  |  |  |  |  |  |  |  |  |  | improvement in activity [3]: most consistent improvement; improvement in attention [3]: most consistent improvement; time of maximum drug concentration ([4]; after oral administration): about two; duration of action [4, 9]: one to four; pharmacokinetic elimination half-life [4, 9]: two to three |
| COC(=O)[C@H](c1ccccc1)[C@H]1CCCCN1 [d-MPH, d-threo-methylphenidate] | 6.67 | 2.65 | 5.96 | 6.53 | approximately equivalent plasma levels | approximately 78% | ~22 | 18.1 | 2.4 | 5.69 | CL [1, 10]: 0.32 L/kg · h^−1 and 0.45 L/kg · h^−1 and 0.33 L/kg · h^−1 and 0.28 L/kg · h^−1 and 0.53 L/kg · h^−1 and 0.20 L/kg · h^−1 and 0.63 L/kg · h^−1 and 0.34 L/kg · h^−1 and 0.44 L/kg · h^−1 and 0.41 L/kg · h^−1 and 0.42 L/kg · h^−1; MRT [1, 10]: 6.49 H and 4.63 H and 5.23 H and 5.75 H and 6.25 H and 4.68 H and 6.79 H and 5.86 H and 7.90 H and 9.44 H and 8.80 H; Vdss [1, 10]: 2.09 L/kg and 2.10 L/kg and 1.73 L/kg and 1.59 L/kg and 3.28 L/kg and 0.92 L/kg and 4.27 L/kg and 2.01 L/kg and 3.51 L/kg and 3.91 L/kg and 3.68 L/kg; t½ [1, 10]: 4.88 h and 4.81 h and 4.17 h and 5.38 h and 6.65 h and 3.97 h and 6.93 h and 4.65 h and 6.80 h and 8.68 h and 8.62 h; Cmax [2, 10]: 12.42 ng/mL and 16.49 ng/mL and 13.81 ng/mL and 22.02 ng/mL and 18.52 ng/mL and 24.54 ng/mL and 22.48 ng/mL and 18.25 ng/mL and 22.91 ng/mL and 13.24 ng/mL; Tmax [2, 10]: 2.0 h and 3.0 h and 1.0 h and 4.0 h; t½ [2, 10]: 5.44 h and 6.67 h and 4.44 h and 5.83 h and 4.14 h and 6.22 h and 4.81 h and 6.31 h and 6.09 h and 5.29 h and 8.38 h; Cmax ([2]; male, human, po, 40 mg, individual subjects 1-11, read-out: Cmax): 14.7 ng/mL |
